The subject of data set [1] is SH-SY5Y. In words: Inhibition of SOC in human SH-SY5Y cells assessed as reduction in thapsigargin-induced Ca2+ influx incubated for 5 mins at 30 uM by FURA-2AM dye based fluorescence assay. Format: cell-based.
Data set [2] relates to SH-SY5Y. In words: Modulation of mitochondrial permeability transition pore opening in human SH-SY5Y cells assessed as reduction in calcein fluorescence at 10 uM by calcein-AM dye based confocal laser scanning microscopy. The data set is classed as functional.
Data set [3] has as its system SH-SY5Y. Conditions: Homo sapiens, at 10 µM.
Description: Modulation of mitochondrial permeability transition pore opening in human SH-SY5Y cells assessed as reduction in calcein fluorescence at 10 uM in presence of 0.2 uM CsA by calcein-AM dye based confocal laser scanning microscopy
For data set [4], the system named is SH-SY5Y. The data set is described as follows: Induction of mitochondrial membrane potential loss in human SH-SY5Y cells at 10 uM incubated for 10 mins by TMRE dye based assay. Format: functional.
Data set [5] concerns SH-SY5Y. As to conditions: Homo sapiens, at 10 µM. This is another data set of the same source.
Description: Inhibition of SOC in human SH-SY5Y cells assessed as reduction in thapsigargin-induced Ca2+ influx incubated for 5 mins at 10 uM by FURA-2AM dye based fluorescence assay
The test system of data set [6] is SH-SY5Y. As to conditions: Homo sapiens, at 10 µM. The source holds these as a separate data set.
Description: Induction of mitochondrial membrane potential loss in human SH-SY5Y cells at 10 uM incubated for 10 mins in presence of 0.2 uM CsA by TMRE dye based assay
Data set [7] relates to SH-SY5Y. Conditions: Homo sapiens, at 10 µM. The source holds these as a separate data set.
Description: Inhibition of SOC in human SH-SY5Y cells assessed as reduction in thapsigargin-induced Ca2+ influx at 10 uM pre-incubated for 5 mins with 0.2 uM CsA followed by compound addition by FURA-2AM dye based fluorescence assay
For data set [8], the system named is SH-SY5Y. In words: Inhibition of SOC in human SH-SY5Y cells assessed as reduction in thapsigargin-induced Ca2+ influx incubated for 5 mins at 1 uM by FURA-2AM dye based fluorescence assay. The data set is classed as cell-based.
The nature of data set [9]: Cytotoxicity against human SH-SY5Y cells assessed as reduction in cell viability at 0.1 to 20 uM incubated for 1 hr by MTT assay. The data set is classed as cell-based.
Data set [10] relates to SH-SY5Y. The data set is described as follows: Effect on cytosolic Ca2+ level in human SH-SY5Y cells at 10 uM followed by 1 mM Ca2+ addition 5 mins after compound treatment by FURA-2AM dye based fluorescence assay. The data set is classed as functional, cell-based.
The nature of data set [11]: Cytotoxicity against human SH-SY5Y cells assessed as reduction in cell viability at 25 uM incubated for 1 hr by MTT assay. Format: cell-based. In general terms: Tetrazolium dyes change colour on reduction, which living cells bring about.
Data set [12] deals with SH-SY5Y. The data set is described as follows: Inhibition of SOC in human SH-SY5Y cells assessed as reduction in thapsigargin-induced Ca2+ influx incubated for 5 mins at 10 uM in presence of 30 uM SKF96365 by FURA-2AM dye based fluorescence assay. Format: cell-based.
Data set [13] relates to SH-SY5Y. The data set is described as follows: Inhibition of SOC in human SH-SY5Y cells assessed as reduction in thapsigargin-induced Ca2+ influx incubated for 5 mins by FURA-2AM dye based fluorescence assay. Format: cell-based.
Data set [14] relates to SH-SY5Y. In words: Effect on VGSC in human SH-SY5Y cells assessed as effect on total sodium current at 0.1 nM to 10 uM by whole cell patch clamp electrophysiology method. The data set is classed as cell-based. In general terms: Patch clamp records ionic current or voltage across a cell membrane.
Data set [15] deals with SH-SY5Y. The data set is described as follows: Inhibition of SOC in human SH-SY5Y cells assessed as reduction in thapsigargin-induced Ca2+ influx incubated for 5 mins at 10 uM in presence of 10 uM FCCP by FURA-2AM dye based fluorescence assay. The data set is classed as cell-based.
The subject of data set [16] is SH-SY5Y. The data set is described as follows: Effect on cytosolic Ca2+ level in human SH-SY5Y cells at 10 uM by FURA-2AM dye based fluorescence assay. Format: functional, cell-based.
Data set [17] deals with SH-SY5Y. The data set is described as follows: Inhibition of SOC in human SH-SY5Y cells assessed as reduction in thapsigargin-induced Ca2+ influx incubated for 5 mins at 5 uM by FURA-2AM dye based fluorescence assay. The data set is classed as cell-based.
Data set [18] addresses Sodium channel protein type 8 subunit alpha (Homo sapiens) (UniProt Q9UQD0). The data set is described as follows: Effect on human NaV1.6 expressed in HEK293 cells assessed as effect on sodium current by whole cell patch clamp electrophysiology method. Format: cell-based.

Each structure is given as a SMILES string. Calls of active or inactive are those of the source. The rule behind the calls is not given here.

Sequence of Sodium channel protein type 8 subunit alpha (Homo sapiens) (Q9UQD0 whole entry, looked up): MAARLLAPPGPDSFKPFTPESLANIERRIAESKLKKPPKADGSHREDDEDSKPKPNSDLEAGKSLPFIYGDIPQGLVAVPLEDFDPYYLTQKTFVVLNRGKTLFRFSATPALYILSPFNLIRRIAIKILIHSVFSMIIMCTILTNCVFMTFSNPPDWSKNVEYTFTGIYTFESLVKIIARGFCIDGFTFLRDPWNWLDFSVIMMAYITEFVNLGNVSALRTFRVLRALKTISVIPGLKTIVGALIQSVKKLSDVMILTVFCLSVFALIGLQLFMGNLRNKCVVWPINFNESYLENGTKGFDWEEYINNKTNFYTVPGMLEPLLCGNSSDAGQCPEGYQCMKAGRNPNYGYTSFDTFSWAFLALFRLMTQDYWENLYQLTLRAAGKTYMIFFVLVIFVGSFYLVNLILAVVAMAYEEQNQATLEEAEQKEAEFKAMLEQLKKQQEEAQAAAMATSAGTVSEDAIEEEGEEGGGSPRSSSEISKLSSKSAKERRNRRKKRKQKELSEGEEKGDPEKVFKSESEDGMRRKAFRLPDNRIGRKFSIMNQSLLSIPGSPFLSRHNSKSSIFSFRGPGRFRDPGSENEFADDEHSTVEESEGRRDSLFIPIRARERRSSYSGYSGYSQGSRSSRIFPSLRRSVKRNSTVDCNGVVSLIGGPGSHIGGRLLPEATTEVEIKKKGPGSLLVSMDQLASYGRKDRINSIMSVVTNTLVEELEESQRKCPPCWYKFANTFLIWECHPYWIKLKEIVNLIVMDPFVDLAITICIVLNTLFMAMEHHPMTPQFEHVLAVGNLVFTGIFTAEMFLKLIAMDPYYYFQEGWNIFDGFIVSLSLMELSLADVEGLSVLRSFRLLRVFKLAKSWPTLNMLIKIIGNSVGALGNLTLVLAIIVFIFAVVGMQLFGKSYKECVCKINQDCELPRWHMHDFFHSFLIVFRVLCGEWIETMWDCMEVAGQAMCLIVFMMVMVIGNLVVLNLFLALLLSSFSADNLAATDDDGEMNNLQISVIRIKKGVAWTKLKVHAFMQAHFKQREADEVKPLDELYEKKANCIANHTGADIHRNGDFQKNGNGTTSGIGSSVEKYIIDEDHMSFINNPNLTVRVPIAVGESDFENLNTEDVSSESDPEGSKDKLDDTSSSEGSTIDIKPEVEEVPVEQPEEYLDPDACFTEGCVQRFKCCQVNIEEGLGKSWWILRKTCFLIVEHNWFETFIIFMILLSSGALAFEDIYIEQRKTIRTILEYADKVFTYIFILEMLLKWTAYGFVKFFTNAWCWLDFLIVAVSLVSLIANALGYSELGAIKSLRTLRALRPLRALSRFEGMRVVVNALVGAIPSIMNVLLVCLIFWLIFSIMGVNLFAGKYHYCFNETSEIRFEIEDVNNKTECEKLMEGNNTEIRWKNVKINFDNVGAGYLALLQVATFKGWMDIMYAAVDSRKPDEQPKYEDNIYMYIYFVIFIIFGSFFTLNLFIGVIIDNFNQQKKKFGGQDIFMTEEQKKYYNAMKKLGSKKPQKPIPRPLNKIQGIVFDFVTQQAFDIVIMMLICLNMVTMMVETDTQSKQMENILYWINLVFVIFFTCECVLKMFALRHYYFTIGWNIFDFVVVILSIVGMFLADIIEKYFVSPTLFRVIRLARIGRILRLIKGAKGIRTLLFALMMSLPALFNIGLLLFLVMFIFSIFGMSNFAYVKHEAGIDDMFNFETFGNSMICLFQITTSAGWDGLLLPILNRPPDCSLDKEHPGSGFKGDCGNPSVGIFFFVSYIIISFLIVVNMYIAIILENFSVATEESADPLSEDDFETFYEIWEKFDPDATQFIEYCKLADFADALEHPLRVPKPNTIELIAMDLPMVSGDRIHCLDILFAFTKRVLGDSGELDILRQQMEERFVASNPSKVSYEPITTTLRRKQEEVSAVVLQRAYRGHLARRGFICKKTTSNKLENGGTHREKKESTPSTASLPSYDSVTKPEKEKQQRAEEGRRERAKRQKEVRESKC

The inhibition is the drop in the measured response relative to a control, in per cent. For the molecule `COc1ccc(CCCOC(Cn2ccnc2)c2ccc(OC)cc2)cc1` (centres undefined), the inhibition entry in the data set on SH-SY5Y [1] was “Active”.
As to `N#CC(C#N)=NNc1ccc(OC(F)(F)F)cc1`, the values for the inhibition at 10 µM in the data set on SH-SY5Y [2] and with SH-SY5Y [4] were 20% and 68%, respectively. For the same molecule, the inhibition entry in the data set on SH-SY5Y [3] was “inactive”. Further, the inhibition in the data set on SH-SY5Y [5] worked out at 51%. Moreover, the inhibition entry in the data set with SH-SY5Y [6] and with SH-SY5Y [7] was “Active” in each case.
For the molecule `CC(C)=CCNC(=N)NCCC[C@H]1NC(=O)[C@H](Cc2ccccc2)NC(=O)[C@H](CC(=O)O)NC(=O)[C@H](CC(C)C)NC(=O)CNC(=O)[C@H]2CCCN2C(=O)[C@H](Cc2ccccc2)NC1=O`, the inhibition entry with SH-SY5Y [8], with SH-SY5Y [3], with SH-SY5Y [6] and in the data set with SH-SY5Y [7] was “inactive” in each case. Moreover, the inhibition at 10 µM in the data set with SH-SY5Y [2] is 30%; in the data set on SH-SY5Y [4] it was 36%. Further, the figures for the Activity entry in data set [9] and in data set [11] were “Non-toxic” and 42%, respectively. For the same molecule, the outcome (in the data set with SH-SY5Y [10]; in the data set on SH-SY5Y [14]; in the data set on SH-SY5Y [16]; in [18]) was inactive. The inhibition result in the data set with SH-SY5Y [12] and in the data set on SH-SY5Y [5] was “Active” throughout. For the same molecule, the inhibition entry was “Dose-dependent effect” in the data set with SH-SY5Y [13], 72% in the data set with SH-SY5Y [15] and 33% in the data set on SH-SY5Y [17].

The record behind these values is ChEMBL document CHEMBL3351226, “Autumnalamide, a prenylated cyclic peptide from the cyanobacterium Phormidium autumnale, acts on SH-SY5Y cells at the mitochondrial level” (J Nat Prod, 2014).
